The text below walks through data of patent US10664967B2, “Methods, systems, and apparatuses for quantitative analysis of heterogeneous biomarker distribution” (Ventana Medical Systems, Inc., priority 2014, dated 2020).

The test system of this experiment is SKBR3 cells. Nature of the experiment: Phosphomarker expression in untreated vs drug treated FFPE SKBR3 cells (multiplexed QD spectral imaging, IF, immunoblot). Type of experiment: cell-based. The note with it: 250 nM, 24 hrs, MTIP, consistent with IF and immunoblot. The procedure: Breast cancer cell line model SKBR3 and the prostate adenocarcinoma cell line model LNCaP were cultured in McCoy's 5A medium supplemented with 10% FBS. SKBR3 cells were treated with the ATP-competitive pan-AKT kinase inhibitor drug GSK690693 at low nanomolar concentration (250 nM) for 24 hrs for antibody validation studies. After drug treatment, cells were washed using cold 1×PBS, fixed in cold 10% Neutral Buffered Formalin and embedded in paraffin for sectioning and slide preparation.
Protein samples from SKBR3 cells were prepared by denaturing cell lysate in an equal volume of Laemmli sample buffer (Biorad, Hercules, Calif.) with 0.5 M dithiothreitol at 100° C. for 5 min. Proteins were separated by SDS-PAGE, transferred to polyvinylidene difluoride membranes, blotted with primary antibodies and detected with horseradish peroxidase-conjugated secondary antibodies. Protein bands were detected using ECL (Thermo Scientific).
Immunostaining for fluorescence spectral imaging was performed on FFPE specimens of SKBR3 cells and tumor tissue on a Benchmark XT autostainer (Ventana Medical Systems, Tucson, Ariz.), to evaluate phosphoprotein staining with the hapten-anti-hapten chemistry in FFPE cell and tumor specimens. All FFPE specimens (cell models, xenograft or tumor tissues) were subjected to automated deparaffinization in EZPREP buffer (VMSI Cat #950-102), and cell conditioning with CC1 buffer (VMSI Cat #950-124) for 90 min prior to antibody incubations. FFPE specimens were incubated with a single or a cocktail of hapten-conjugated primary antibodies (pS6:BF, pAKT 5473:DIG, peIF4G:TS, pPRAS40:NP, pERK 1/2:NCA, pAKT T308:DNP at 5, 15, 20, 20, 30, 12.5 μg/mL respectively) at 37° C. for 32 minutes. Following the primary antibody incubation step, samples were incubated by appropriate combination of secondary anti-hapten antibody QD conjugates (anti-BF:QD525, anti-DIG:QD565, anti-TS:QD585, anti-NP:[…], anti-NCA:QD625, anti-DNP:QD655 at 40, 50, 50, 70, 40, 30 nM concentrations respectively) at 37° C. for 32 minutes. Following automated staining with antibodies, samples were dehydrated in ethanol series, followed by xylene, and mounted using Cytoseal 60 (Thermo Scientific).
The specificity of the antibodies selected was tested using a series of IHC experiments using FFPE cell and xenograft model systems (FIGS. 14 15 and 16). The anti-phosphomarker hapten conjugated primary and anti-hapten monoclonal secondary functionality was tested using the SKBR3 cell line, a well-established breast cancer model of PI3K pathway activation (Englemen PNAS ref). SKBR3 cells were either untreated or treated with the AKT small molecule inhibitor GSK690693. The two cell populations were prepared as FFPE blocks and stained using the anti-phosphomarker primaries, followed by anti-hapten secondary antibodies conjugated to HRP to permit contrast through DAB. This permitted verification of the hapten-anti-hapten labeling scheme (FIG. 14; the DAB stain pattern was consistent with primary-anti-species secondary staining performed in parallel).
A multiplexed experiment was then conducted using the combined markers followed by hyperspectral imaging and processing to separate the signal contributions for each marker (FIG. 14b). For additional comparison, SKBR3 cell lysates were subjected to immunoblotting with all six phosphoantibodies (FIG. 14c). […] The similarity of phosphomarker expression changes upon drug treatment detected using MTIP to that observed in the IF and immunoblot staining validate the specificity and functionality of the conjugated antibodies used in the multiplexed assay context.

Regarding `CCn1c(-c2nonc2N)nc2c(C#CC(C)(C)O)ncc(OC[C@H]3CCCNC3)c21` [GSK690693], the “pAKT308 expression change following drug treatment” value is recorded as “relative increase in expression”, the “pAKT473 expression change following drug treatment” value is “relative increase in expression”, the “pERK expression change following drug treatment” value is listed as “reduction in the expression” and the “pPRAS40 expression change following drug treatment” value is reported as “reduction in the expression”. Further, the “pS6 expression change following drug treatment” value is “reduction in the expression” and the “peIF4G expression change following drug treatment” value is recorded as “did not show any significant change in the expression”.
